From patent publication US20220031596A1, “ANTI-AGING AGENT AND ANTI-AGING METHOD” (priority 2018, published 2022) come the findings set out here.

The subject of assay [1] is testosterone concentration in the plasma. Kind of assay: Evaluation of testosterone secretion promoting effect (plasma testosterone, 24-week oral ingestion). The following applies: for testosterone concentration in the plasma, 0 weeks (before ingestion) / testosterone concentration in the plasma, 24 weeks (after ingestion) / testosterone concentration in the plasma, Change rate (24 weeks - 0 weeks): High Dose Group (200 mg/daily, oral), mean±SD; for testosterone concentration in the plasma, 0 weeks (before ingestion): baseline. The format is in vivo, human. Here is the method:
In order to confirm a change in the testosterone quantity before and after ingestion of the nicotinamide mononucleotide, a test was conducted on healthy males and females aged 50 to 70 years.
As a sample of Working Example 8, a capsule formulation containing the nicotinamide mononucleotide and starch (200 mg of the nicotinamide mononucleotide in 4 capsules) (manufactured by SHINKOWA PHARMACEUTICAL Co., Ltd.) was used.
(§1) Each group consisting of five healthy males and females aged 50 to 70 years in an unbiased age group ingested the above high dose capsule formulation once a day by 4 capsules for 24 weeks (total 10 subjects, 200 mg/daily ingestion). In order to conduct appropriate evaluations, those who had been regularly using medical products for chronic diseases, those who had been consuming healthy foods that may affect clinical research, and those who were currently participating in other clinical researches or clinical trials or had participated in other clinical researches or clinical trials within the last three months were excluded from the subject for the evaluation. The capsule formulations were ingested at 10 am (between meals and fasting state) together with water or lukewarm water (oral administration).
Measurement of the testosterone quantity in the plasma was conducted by requesting the measurement to an external public organization according to a usual method. FIGS. 16a to 16c indicate transitions of the testosterone concentration (ng/ml) in the plasma for 24 weeks. FIG. 16a represents the transitions of the whole subjects; FIG. 16b represents the transitions of the male subjects; FIG. 16c represents the transitions of the female subjects. Further, FIGS. 17a to 17c indicate change rates (%) of the blood testosterone concentration up to 24 weeks when the nicotinamide mononucleotide was orally administered to the subjects for 24 weeks. FIG. 17a represents the change rates of the whole subjects; FIG. 17b represents the change rates of the male subjects; FIG. 17c represents the change rates of the female subjects. Further, Table 8 indicates the numerical values of the testosterone concentration (ng/ml) in the plasma before the ingestion of the nicotinamide mononucleotide (0 weeks) and after the ingestion of the nicotinamide mononucleotide (24 weeks). Note that the numerical values represent mean values±standard deviation.

Assay [2] concerns thyroid-stimulating hormone concentration in the plasma. In words: Evaluation of thyroid-stimulating hormone secretion promoting effect (plasma TSH, 24-week oral ingestion). It counts as in vivo, human. The note with it: for thyroid-stimulating hormone concentration in the plasma, 0 weeks (before ingestion) / thyroid-stimulating hormone concentration in the plasma, 24 weeks (after ingestion) / thyroid-stimulating hormone concentration in the plasma, Change rate (24 weeks - 0 weeks): High Dose Group (200 mg/daily, oral), mean±SD; for thyroid-stimulating hormone concentration in the plasma, 0 weeks (before ingestion): baseline. Here is the method: In order to confirm a change in the thyroid-stimulating hormone quantity before and after ingestion of the nicotinamide mononucleotide, a test was conducted on healthy males and females aged 50 to 70 years.
As a sample of Working Example 4, a capsule formulation containing the nicotinamide mononucleotide and starch (200 mg of the nicotinamide mononucleotide in 4 capsules) (manufactured by SHINKOWA PHARMACEUTICAL Co., Ltd.) was used.
as §1, with “above” for “above high dose”
Measurement of the thyroid-stimulating hormone quantity in the plasma was conducted by requesting the measurement to an external public organization according to a usual method. FIGS. 8a to 8c indicate transitions of the thyroid-stimulating hormone concentration (μU/ml) in the plasma for 24 weeks. FIG. 8a represents the transitions of the whole subjects; FIG. 8b represents the transitions of the male subjects; FIG. 8c represents the transitions of the female subjects. Further, FIGS. 9a to 9c indicate change rates (%) of the blood thyroid-stimulating hormone concentration up to 24 weeks when the nicotinamide mononucleotide was orally administered to the subjects for 24 weeks. FIG. 9a represents the change rates of the whole subjects; FIG. 9b represents the change rates of the male subjects; FIG. 9c represents the change rates of the female subjects. Further, Table 4 indicates the numerical values of the thyroid-stimulating hormone concentration (μU/ml) in the plasma before the ingestion of the nicotinamide mononucleotide (0 weeks) and after the ingestion of the nicotinamide mononucleotide (24 weeks). Note that the numerical values represent mean values±standard deviation.

With `NC(=O)c1ccc[n+]([C@@H]2O[C@H](COP(=O)([O-])O)[C@@H](O)[C@H]2O)c1` [nicotinamide mononucleotide], the “testosterone concentration in the plasma, 0 weeks (before ingestion)” value amounted to 0.09 ± 0.06 ng/mL in assay [1] (Female), 5.66 ± 1.54 ng/mL in assay [1] (Male) and 2.87 ± 3.11 ng/mL in assay [1] (Whole Subjects). For the same compound, the “testosterone concentration in the plasma, 24 weeks (after ingestion)” value in assay [1] (Female) is 0.10 ± 0.05 ng/mL; in assay [1] (Male) it was 5.90 ± 1.59 ng/mL; in assay [1] (Whole Subjects), 3.00 ± 3.24 ng/mL. Also, the “testosterone concentration in the plasma, Change rate (24 weeks - 0 weeks)” value came to 0.00 ± 0.03 ng/mL in assay [1] (Female), 0.25 ± 0.92 ng/mL in assay [1] (Male) and 0.13 ± 0.63 ng/mL in assay [1] (Whole Subjects). Also, in assay [1] (oral, 200 mg/daily, 24 weeks, FIGS. 16a-16c, 17a-17c), the “testosterone concentrations in the plasma, effect of ingestion (in words)” value is “increased”. For the same compound, the “thyroid-stimulating hormone concentration in the plasma, 0 weeks (before ingestion)” value in assay [2] (Female) is listed as 2.56 ± 1.27 μU/ml; in assay [2] (Male), 2.57 ± 1.65 μU/ml; in assay [2] (Whole Subjects), 2.57 ± 1.39 μU/ml. For the same compound, the “thyroid-stimulating hormone concentration in the plasma, 24 weeks (after ingestion)” value in assay [2] (Female) worked out at 2.61 ± 1.15 μU/ml; in assay [2] (Male) it was 2.97 ± 1.52 μU/ml; in assay [2] (Whole Subjects), 2.79 ± 1.29 μU/ml. Further, the “thyroid-stimulating hormone concentration in the plasma, Change rate (24 weeks - 0 weeks)” value is listed as 0.05 ± 0.98 μU/ml in assay [2] (Female), 0.40 ± 1.38 μU/ml in assay [2] (Male) and 0.23 ± 1.14 μU/ml in assay [2] (Whole Subjects). For the same compound, the “thyroid-stimulating hormone concentrations in the plasma, effect of ingestion (in words)” value in assay [2] (oral, 200 mg/daily, 24 weeks, FIGS. 8a-8c, 9a-9c) is “increased”.
